Test results reported in patent US11491173B2, “Pharmaceutical composition and application thereof” (priority 2018, dated 2022).
“And” between values parts separate entries of the source, which are not always exact repeats. Equal values may be shown once.

Assays:
[1] = tested on: H9c2 cardiomyocyte damage induced by hypoxia; test: Hypoxia-induced H9c2 cardiomyocyte damage, nucleus number (Hoechst 33342, high-content imaging); type: cell-based; settings: 24 h pre-incubation, then hypoxia 8 h; for nucleus number (Table 7): individual replicates N1-N3, 0.4 mg/mL DMSO stock diluted with medium; for nucleus number, Mean (Table 7): mean of N1-N3
Protocol: (§1) 2. Experimental methods: QSYQ-1 and QSYQ-2, and each active ingredient group were ultrasonically dissolved and prepared into a 0.4 mg/mL of stock solution with DMSO. When in vitro activity evaluation was performed, the above groups were diluted with the same amount of experimental medium respectively.
(§2) The cells were collected at the logarithmic growth phase and added to a 96-well culture plate with a black transparent bottom at a concentration of 5000 cells per well and a volume of 100 μL per well. The cells were incubated in an incubator with 5% CO2 at 37° C. for 24 hours. Subsequently, the tested groups were added to the experimental groups respectively, incubated for 24 hours, and then placed in a hypoxic chamber passing a mixed gas composed of 95% nitrogen and 5% CO2 at a flow rate of 15 L/min for 10 mins, and incubated for another 8 hours after inducing hypoxia damage at 37° C. The model group was only incubated for 8 hours under hypoxia, and the blank control group was incubated normally.
(§3) The labeling operation of cell fluorescent probe was as follows: the mother liquor of fluorescent probe Hoechst 33342 was diluted 1000-fold into a DMEM basic medium; then the mother liquor of MitoTracker Deep Red FM was diluted 10000-fold into a culture medium containing Hoechst 33342 to serve as a “cocktail” stain. The medium in the culture plate was discarded and replaced with the “cocktail” stain, 50 μL per well, and incubated in an incubator away from light for 30 mins. The plate was taken out away from light, and washed with DMEM (high glucose) for 3 times and 5 minutes each time. Live cell imaging was performed subsequently.
(§4) The operation of live cell imaging with HCS was as follows: an excitation light of 360-400 and an emission light of 410-480 were selected for the imaging of Hoechst 33342-labeled nuclei; an excitation light of 620-640 and an emission light of 650-760 were selected for the imaging of MitoTracker Deep Red FM-labeled mitochondria. Harmony 3.0 software was applied to analyze the HCS imaging and read the fluorescence intensities of the nucleus/cytoplasm. The HCS screening system combined the automatic fluorescence microscopy imaging functions, and can perform a high-throughput multi-index analysis. Columbus high-efficiency image and data management and analysis system were applied to perform a secondary analysis and management of the image and data, and draw the dosage-dependent curve relationship.

[2] = tested on: H9c2 cardiomyocyte damage induced by hypoxia; test: Hypoxia-induced H9c2 cardiomyocyte damage, mitochondrial function (MitoTracker Deep Red FM, high-content imaging); type: cell-based; settings: 24 h pre-incubation, then hypoxia 8 h; for mitochondrial function (Table 9): individual replicates N1-N3; for mitochondrial function, Mean (Table 9): mean of N1-N3
Protocol: as §1, §2, §3, §4

Compound | nucleus number (Table 7) [1] | nucleus number, Mean (Table 7) [1] | mitochondrial function (Table 9) [2] | mitochondrial function, Mean (Table 9) [2] | mitochondrial function (Table 9) ([2]; listed as Astradaloside)
O=C(/C=C/c1ccc(O)c(O)c1/C(=C\c1ccc(O)c(O)c1)C(=O)O)O[C@H](Cc1ccc(O)c(O)c1)C(=O)O [Salvianolic acid T, salvianolic acid T] | 325 and 279 and 284 | 296.0 | 815.14 and 888.53 and 824.27 | 842.6 | 
O=C(/C=C/c1ccc(O)c(O)c1/C(=C\c1ccc(O)c(O)c1)C(=O)O)O[C@H](Cc1ccc(O)c(O)c1)C(=O)O [Salvianolic acid U, salvianolic acid U] | 349 and 315 and 252 | 305.3 | 992.37 and 840.14 and 895.53 | 909.3 | 
Cc1coc2c1C(=O)C(=O)c1c-2ccc2c(C)cccc12 [Tanshinone I, tanshinone I] | 379 and 315 and 300 | 331.3 | 876.03 and 904.55 and 828.87 | 869.8 | 
Cc1coc2c1C(=O)C(=O)c1c-2ccc2c1CCCC2(C)C [Tanshinone IIA, tanshinone IIA] |  | 393.3 |  | 695.2 | 
astragaloside [Astragaioside] | 374 and 365 and 435 | 391.3 |  | 817.5 | 812.45 and 768.63 and 871.37
